Test results from a compilation of properties of binary mixtures (doi:10.1021/je500765m).

Test: xn = mol fraction of the nth substance listed
Conditions: 101 kPa, x2 = 0.0138

**Q.** For `CCCC[n+]1ccn(C)c1.N#C[C-](C#N)C#N` + O, which viscosity (293.15 K) is on record?
**A.** 32.77 mPa·s

**Q.** And the viscosity (298.15 K)?
**A.** 26.47 mPa·s

**Q.** And the viscosity (303.15 K)?
**A.** 21.7 mPa·s

**Q.** And the viscosity (308.15 K)?
**A.** 18.08 mPa·s

**Q.** And the viscosity (313.15 K)?
**A.** 15.3 mPa·s

**Q.** And the viscosity (318.15 K)?
**A.** 13.09 mPa·s

**Q.** And the viscosity (323.15 K)?
**A.** 11.32 mPa·s

**Q.** And the viscosity (338.15 K)?
**A.** 7.748 mPa·s

**Q.** And the viscosity (343.15 K)?
**A.** 6.933 mPa·s

**Q.** What about the viscosity (353.15 K) of the same compound?
**A.** 5.658 mPa·s

**Q.** And the viscosity (358.15 K)?
**A.** 5.155 mPa·s

**Q.** And the viscosity (363.15 K)?
**A.** 4.718 mPa·s
